Like-named read-outs stand apart in the source and are kept apart here.
Experiments:
IGF1R = IGF1R (Homo sapiens, UniProt P08069); assay: FRET-based Z'-Lyte kinase assay, IGF1R; assay type: biochemical; settings: AV ± SD; 1.5 h incubation
Procedure: (§1) The kinase activity assay was performed and optimized according to the instructions of Z’‐LYTE™ kinase assay kits from the manufacturer (PV4879, Life, America). In our experiments, 10 concentration gradients from 0.01 nmol/L to 1.0 μmol/L were used for all the compounds.

IR = IR (Homo sapiens, UniProt P06213); assay: FRET-based Z'-Lyte kinase assay, IR; assay type: biochemical; settings: AV ± SD; 1.5 h incubation
Sequence of IR (P06213 28-1382): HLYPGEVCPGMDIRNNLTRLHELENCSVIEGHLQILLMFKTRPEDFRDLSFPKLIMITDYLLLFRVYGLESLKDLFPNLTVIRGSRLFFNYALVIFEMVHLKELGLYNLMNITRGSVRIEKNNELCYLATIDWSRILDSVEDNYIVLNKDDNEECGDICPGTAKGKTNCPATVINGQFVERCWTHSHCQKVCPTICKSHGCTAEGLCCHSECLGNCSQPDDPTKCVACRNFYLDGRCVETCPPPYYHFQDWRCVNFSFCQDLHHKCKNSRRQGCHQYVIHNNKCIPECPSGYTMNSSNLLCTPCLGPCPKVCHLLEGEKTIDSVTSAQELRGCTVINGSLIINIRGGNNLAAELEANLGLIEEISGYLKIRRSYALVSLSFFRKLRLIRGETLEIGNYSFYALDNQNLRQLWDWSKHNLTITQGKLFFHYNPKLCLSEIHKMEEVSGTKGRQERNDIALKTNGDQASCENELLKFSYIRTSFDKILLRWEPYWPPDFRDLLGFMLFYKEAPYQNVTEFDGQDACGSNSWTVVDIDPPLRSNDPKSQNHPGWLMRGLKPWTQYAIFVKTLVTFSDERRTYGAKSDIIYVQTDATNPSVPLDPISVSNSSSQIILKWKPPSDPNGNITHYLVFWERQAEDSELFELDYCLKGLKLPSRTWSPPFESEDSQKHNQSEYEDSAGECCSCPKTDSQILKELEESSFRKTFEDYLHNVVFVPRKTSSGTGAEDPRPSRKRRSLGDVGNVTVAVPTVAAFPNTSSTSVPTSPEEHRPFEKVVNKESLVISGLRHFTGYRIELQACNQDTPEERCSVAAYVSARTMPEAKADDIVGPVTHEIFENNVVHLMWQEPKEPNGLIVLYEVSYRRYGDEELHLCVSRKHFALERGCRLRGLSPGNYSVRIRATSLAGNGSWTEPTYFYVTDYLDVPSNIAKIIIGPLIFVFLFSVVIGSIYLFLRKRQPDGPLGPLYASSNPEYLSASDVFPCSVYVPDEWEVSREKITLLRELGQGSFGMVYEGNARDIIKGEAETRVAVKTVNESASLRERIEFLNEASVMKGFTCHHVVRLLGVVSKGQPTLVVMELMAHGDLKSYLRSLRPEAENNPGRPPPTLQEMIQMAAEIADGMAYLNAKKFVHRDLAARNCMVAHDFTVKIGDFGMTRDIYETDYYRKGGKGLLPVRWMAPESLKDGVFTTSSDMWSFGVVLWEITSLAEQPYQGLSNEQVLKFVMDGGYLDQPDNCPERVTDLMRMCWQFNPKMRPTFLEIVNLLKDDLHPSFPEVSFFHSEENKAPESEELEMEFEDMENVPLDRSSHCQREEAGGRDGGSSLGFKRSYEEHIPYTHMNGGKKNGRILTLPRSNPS
Procedure: as §1

[1] = system: H1975 (EGFR^L858R/T790M) cells; assay: CCK-8 cell growth assay, H1975; assay type: cell-based; settings: Homo sapiens, read-out: antiproliferative IC50 H1975
Procedure: (§2) Cells were seeded into 96‐well plates at a density of 1500~3000/well in complete medium overnight. Then, cells were treated with various concentrations (0.01~1000 nmol/L) of YL143 for additional 3 days. Viable cell numbers were determined by Cell Counting Kit 8 (CCK8, CK04, Dojindo Laboratories, Japan). Each assay consisted of three replicate wells and repeated at least three times. […] Each IC50 value was expressed as mean ± SD.

[2] = system: HCC827 (EGFR^del 19) cells; assay: CCK-8 cell growth assay, HCC827; assay type: cell-based; settings: Homo sapiens, read-out: antiproliferative IC50 HCC827
Procedure: as §2

A431 (EGFR^WT) cells = assay: CCK-8 cell growth assay, A431; assay type: cell-based; settings: Homo sapiens, read-out: antiproliferative IC50 A431
Procedure: as §2

A549 (EGFR^WT) cells = assay: CCK-8 cell growth assay, A549; assay type: cell-based; settings: Homo sapiens, read-out: antiproliferative IC50 A549
Procedure: as §2

BaF3 = assay: CCK-8 assay, BaF3 cells; assay type: cell-based; settings: Mus musculus, AV±SD, read-out: anti-proliferative activity BaF3
Procedure: as §2
(§3) The anti-proliferative activities of the compounds were evaluated using CCK-8 assay. The data were means from at least four independent experiments.

BaF3-EGFR ^L858R = assay: CCK-8 assay, BaF3-EGFR L858R stable cells; assay type: cell-based; settings: Ba/F3 EGFR-L858R, read-out: anti-proliferative activity BaF3-EGFR L858R
Procedure: as §2, §3

[3] = cited from earlier work; for median progression-free survival (PFS): patients with NSCLC with EGFR^L858R or EGFR^del19, improved from 4.6
[4] = cited from earlier work

Sequence of IGF1R (P08069 31-1367, species assumed): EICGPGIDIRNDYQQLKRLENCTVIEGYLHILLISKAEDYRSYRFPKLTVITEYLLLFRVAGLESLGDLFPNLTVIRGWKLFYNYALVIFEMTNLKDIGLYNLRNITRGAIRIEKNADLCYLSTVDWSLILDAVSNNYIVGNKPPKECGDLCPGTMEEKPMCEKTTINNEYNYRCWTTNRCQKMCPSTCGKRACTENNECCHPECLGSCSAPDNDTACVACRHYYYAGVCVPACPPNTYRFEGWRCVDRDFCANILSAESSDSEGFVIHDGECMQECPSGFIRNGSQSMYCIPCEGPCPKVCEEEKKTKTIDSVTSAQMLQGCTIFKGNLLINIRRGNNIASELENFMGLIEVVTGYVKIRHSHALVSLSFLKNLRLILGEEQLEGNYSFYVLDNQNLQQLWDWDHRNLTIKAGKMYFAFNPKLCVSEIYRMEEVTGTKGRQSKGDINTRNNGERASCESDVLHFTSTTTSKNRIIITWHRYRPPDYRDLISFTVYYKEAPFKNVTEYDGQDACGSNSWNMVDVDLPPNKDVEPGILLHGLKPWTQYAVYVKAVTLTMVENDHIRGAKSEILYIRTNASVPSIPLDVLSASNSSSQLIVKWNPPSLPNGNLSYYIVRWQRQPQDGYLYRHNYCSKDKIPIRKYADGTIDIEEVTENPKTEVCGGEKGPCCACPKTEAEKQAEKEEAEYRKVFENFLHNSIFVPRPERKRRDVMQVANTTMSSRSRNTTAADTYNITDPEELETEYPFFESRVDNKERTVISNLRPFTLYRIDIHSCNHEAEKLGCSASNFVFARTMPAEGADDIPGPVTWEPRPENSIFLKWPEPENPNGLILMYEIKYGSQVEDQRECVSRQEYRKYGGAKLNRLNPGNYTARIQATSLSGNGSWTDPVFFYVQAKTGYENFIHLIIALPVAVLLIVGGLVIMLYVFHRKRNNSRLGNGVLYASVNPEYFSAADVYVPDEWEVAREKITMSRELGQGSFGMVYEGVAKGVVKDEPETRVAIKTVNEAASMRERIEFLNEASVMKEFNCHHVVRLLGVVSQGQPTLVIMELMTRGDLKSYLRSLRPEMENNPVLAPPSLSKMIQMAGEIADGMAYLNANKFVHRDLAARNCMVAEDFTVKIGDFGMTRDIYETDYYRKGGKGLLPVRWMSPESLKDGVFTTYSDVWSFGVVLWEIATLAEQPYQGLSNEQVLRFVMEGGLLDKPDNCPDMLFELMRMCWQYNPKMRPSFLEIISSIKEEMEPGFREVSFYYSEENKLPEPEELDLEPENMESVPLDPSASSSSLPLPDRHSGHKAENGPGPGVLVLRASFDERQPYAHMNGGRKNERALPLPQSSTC

C=CC(=O)Nc1cc(Nc2nccc(-c3cn(C)c4ccccc34)n2)c(OC)cc1N(C)CCN(C)C [AZD9291, Osimertinib]
IC50 (IGF1R): 277 nM
IC50 (IR): 235 nM
IC50 ([1]; NCI-H1975, 72 h): 40.3 ± 16.6 nM
IC50 ([2]; HCC827, 72 h): 3.9 ± 3.5 nM
IC50 (A549 (EGFR^WT) cells; A549, 72 h): > 1000 nM
IC50 (BaF3): 6170 ± 2980 nM
IC50 (BaF3-EGFR ^L858R): 24 ± 25 nM
PFS (progression-free survival) ([3]; improved from 10.2): 18.9 months

C=CC(=O)Nc1cccc(Nc2nc(Nc3ccc(N4CCN(C(C)=O)CC4)cc3OC)ncc2C(F)(F)F)c1 [CO1686, Rociletinib]
IC50 (IGF1R): 47.5 ± 8.4 nM
IC50 (IR): 12.8 ± 0.8 nM
IC50 ([1]; NCI-H1975, CCK-8, 72 h, AV ± SD): 41.8 ± 25.1 nM
IC50 ([2]; HCC827, CCK-8, 72 h, AV ± SD): 67.2 ± 19.5 nM
IC50 (A431 (EGFR^WT) cells; A-431, CCK-8, 72 h): > 1000 nM
IC50 (A549 (EGFR^WT) cells; A549, CCK-8, 72 h): > 1000 nM
IC50 (BaF3): 2340 ± 1660 nM
IC50 (BaF3-EGFR ^L858R; CCK-8, AV±SD): 69 ± 48 nM
hyperglycemia ([4]; clinical investigation): about 40 % patients
hyperglycemia ([4]; patients, clinical study): 47%

COc1cc2ncnc(Nc3ccc(F)c(Cl)c3)c2cc1OCCCN1CCOCC1 [Gefitinib]
median progression-free survival (PFS) [3]: 13.1 months

C#Cc1cccc(Nc2ncnc3cc(OCCOC)c(OCCOC)cc23)c1 [erlotinib]
median progression-free survival (PFS) [3]: 13.1 months
